Where two headings read alike, the source gives them in different places.
Assays:
[1] = Tissue distribution of SDC-TRAPs in tumor-bearing mice (plasma, tumor, heart); conditions: mouse, in vivo; for Kp: tissue distribution of SDC-TRAP-0076, read-out: Tumor/Plasma Ratio
Experimental: Using the 10 mM stock solutions of the SDC-TRAP molecule and its Hsp90i binding moiety and effector moiety in DMSO, spiking solutions were prepared at 0.025, 0.05, 0.1, 0.5, 1, 5, 10, 50, 100, 250, and 500 μM in DMSO. 5 μL of each spiking solution was added to a 96-deep well plate.
Quality control standards were prepared from 5 μL of 0.1, 1, and 10 μM calibration standard spiking solution added in triplicate into 96-deep well plate and adding 50 μL of matrix (plasma or homogenized tumor).
To prepare test samples, test plasma was diluted as needed using blank plasma. Tumor samples were pulverized in liquid nitrogen, weighed, and homogenized in PBS at 5× volume to sample weight. 50 μL of unknown plasma or homogenized tumor sample was mixed with 5 μL of DMSO. The samples were extracted by precipitating calibration standards, QC standards, and unknown samples with 200 μL of internal standard solution. The samples were mixed by vortex at room temperature for approximately 1.5 minutes, then centrifuge at 2-8° C. 150 μL of supernatant was collected and 25 μL of water added. Samples were mixed and analyzed by LC-MS/MS.
Samples of plasma, heart and tumor were excised from a euthanized mouse, homogenized in PBS at 5 times tissue weight and diluted in 5 μL DMSO/50 μL sample. Prior to analysis, 55 μL samples and calibration standards were precipitated in 200 μL methanol in 96-well plates. Samples were mixed on a vortex mixer for 1.5 minutes at 1500 rpm at room temperature, then centrifuged at 4400 rpm for 10 minutes at 8° C. 150 μL of each supernatant was transferred to a well of a new 96-well plate, and 25 μL of water was added and mixed with the sample. […] For the analysis of samples from female SCID mice, a gradient of solvent A (water/0.1% formic acid) and B (acetonitrile/0.1% formic acid) was used as in Table A below.

[2] = Stability in mouse plasma; format: in vitro ADME; conditions: for % Remaining: 1 h; for Mouse (10 μM) % Remaining 1 h (37° C.) §: § not explained
Experimental: SDC-TRAP-0022 and SDC-TRAP-0028 were incubated in human and mouse plasma for 2 h at 37° C. and assayed for integrity at 0.25, 0.5, 1 and 2 h. The values reported below are the remaining of the parent compound at the end of the 2 h incubation period.
This solution was used to precipitate all plasma samples in the study. 200 μL was pipetted into a 96 deepwell plate over dry ice. 10 μL of 1 mM stock in DMSO was added to a 1.5 mL microfuge tube, then 990 μL of plasma. Samples were mixed by vortex, then 50 μL of each sample was added in triplicate to a 96-well plate containing internal standard solution. This was designated the 0 hour time point sample. 250 μL of the remaining plasma sample was added to each of four 96 deepwell plates—one per time point. Samples were incubated at 37° C. with gentle shaking for 0.25, 0.5, and 1 hour. After each time point, one plate of each sample was removed from the shaker and placed on wet ice for approximately 2 minutes. 50 μL plasma aliquots (in triplicate) were added to the deepwell plate containing internal standard solution. After the last time point was extracted, the 96 deepwell plate was vortexed, then centrifuged at 2-8° C. 150 μL of supernatant was collected and 25 μL of water was added. Samples were mixed and analyzed by LC-MS/MS.
The stability of seven SDC-TRAP types in mouse plasma was measured as follows. 990 μL mouse plasma aliquots from a common stock were spiked with 10 μL of 1 mM stock of one of seven SDC-TRAP samples identified in the table below. Each sample was mixed and divided into 250 μL aliquots, each representing time points 0, 15 minutes, 30 minutes or 1 hour. At the prescribed time point, 3×50 μL samples were each mixed with 200 μL of methanol containing internal standard and held on dry ice until all time point samples were extracted. The samples collectively were vortex mixed for 1.5 minutes at 1500 rpm, then centrifuged at 4400 rpm for 10 minutes at 8° C.

[3] = Stability in cell culture media; conditions: § not explained
Experimental: 98 μL of DMEM+10% FBS, +1% P/S, +1.5 g/L sodium bicarbonate cell culture media was mixed with 2 μL of DMSO and aliquotted into 96-well plates at 250 μL per 0, 1, 2, and 18 hour time point.
3×50 μL media samples in 96 were held in 96-well plates at −80° C. until the last time point was extracted. 200 μL of methanol containing IS was added and mixed by vortex at 1500 rpm for 1.5 minutes at room temperature. The samples were centrifuged at 4400 rpm for 10 minutes at 8° C.

[4] = Tissue distribution of ganetespib in female CD-1 nu/nu mice bearing RERF human NSCLC xenografts; format: in vivo, mouse; conditions: ganetespib 50 mg/kg IV
Experimental: To confirm the distribution of ganetespib in blood, livers, kidneys, brains, hearts, lungs and tumors after IV administration of ganetespib to female CD-1 nu/nu mice bearing RERF human NSCLC xenografts, and to examine metabolic profiles of ganetespib in plasma, red blood cells, and above tissues.
Animals: female CD-1 nu/nu mice bearing RERF human NSCLC xenografts (N=3/group)
Formulation: 10% DMSO, 18% Cremophor RH40, 3.6% dextrose solution (DRD)
Bleeding time points: 5 min, 6, 24 hr
Collected tissues: blood (plasma and red blood cells (RBC)), liver, kidneys, brain, heart, lung, tumor
Protein precipitation: 50 μL of 10 times diluted plasma or RBC+150 μL ACN (10 mM NH4OAc), vortexed and centrifuged at 10000 rpm for 8 min; 150 μL supernatant+150 μL water (10 mM NH4OAc)
Protein precipitation: 100 μL homogenized tissue (1:3 tissue: PBS buffer)+100 μL ACN (10 mM NH4OAc), vortexed and centrifuged at 10000 rpm for 8 min

[5] = tested on: H 3211 NSLC cells; test: IC50 of continuous and pulsed exposure to SDC-TRAPs; format: cell-based; conditions: 72 h, read-out: IC50, 72 h-continuous, H 3211 NSLC cells, 7.5 × 10^3 cells/well; 1st of 3 columns
[6] = Artificial membrane permeability assay (PAMPA); format: in vitro ADME; conditions: 5 h incubation, first table
Experimental: In order to test the ability SDC-TRAP molecules of the invention to enter cells, an artificial membrane permeability assay (“PAMPA”) was used. […] LC/MS was used in conjunction with PAMPA assays to determine the ability of the SDC-TRAP molecules of the invention to permeate cells.
Pre-coated PAMPA plates were warmed to room temperature for at least 30 minutes prior to adding assay components.
Stock solutions were prepared with the SDC-TRAP molecules to be tested. In order to make a working solution, either 50 μL of 100 μM Stock in DMSO+950 μL of PBS or 50 μL of 200 μM stock was added to 96 deep well plate, resulting in a 5 μM final concentration or a 10 μM final concentration, respectively. 300 μL of the working solution containing each compound to be tested was added to the appropriate well of a donor PAMPA plate. 200 μL of PBS was added into the corresponding wells of an acceptor PAMPA plates.
The acceptor plate was lowered onto the donor plate and allowed to incubate for five hours. After five hours, a 50 μL aliquot was removed from each well of each plate and added into a new 96 deep-well plate.
100 μL of methanol containing an internal standard was added to each aliquot and analyzed by LC/MS. The internal standard was 150 ng/ml SDC-TRAP-0002.
In order to calculate the permeability for each SDC-TRAP molecule and the control molecules, the following formula was used:

[7] = biological target: T1, Hsp90α (Homo sapiens, UniProt P07900); test: Hsp90α binding assay (fluorescence polarization, FITC-labeled geldanamycin)
T1 construct: purchased BPS Bioscience 50294
Experimental: An Hsp90^α fluorescence assay kit from BPS Bioscience (Cat #50294) containing Hsp90 recombinant enzyme, FITC-labeled geldanamycin, assay buffer and a low binding 384-well plate was used to assay Hsp90^α binding. Dithiothreitol (DTT) (Cat # D0643) and bovine serum albumin (BSA) (Cat # A2153) were obtained from Sigma-Aldrich. Fluorescence polarization was measured using a PHERAstar microplate reader (BMG LABTECH GmbH, Ortenberg, Germany.)
The compounds were diluted to 1 mM in DMSO and loaded into a compound dilution plate to make 3-fold dilutions yielding a total of 8 concentrations. 1 μL of compound was transferred from the dilution plate to the low binding assay plate provided in the assay kit. 5 mL of Hsp90^α binding solution was prepared having a final concentration of 7 ng/μL Hsp90^α, 5 nM FITC-labeled geldanamycin, 2 mM DTT and 0.1 mg/mL BSA. 49 μL of binding solution was added to each microplate well, incubated at room temperature for 1 hour, then read using the PHERAstar microplate reader. The high control sample contained no compound plus Hsp90^α; the low control sample contained no compound and no Hsp90^α. […] The IC50 was calculated using GraphPad Prism 4 software.

[8] = tested on: MCF-7 breast cancer cells; test: Mouse xenograft efficacy in an MCF-7 breast cancer model; format: in vivo; conditions: FIG. 8
Experimental: MCF-7 breast cancer cells were purchased from ATCC. […] Fetal bovine serum was then added to the medium. The final concentration of fetal bovine serum was 10%. Cells were cultured at 37° C. and 5% CO2.
Mice that were not put on treatment were euthanized. Animals were sourced through CRL (Wilmington, Mass.).

CCNC(=O)c1nnc(-c2cc(C(C)C)c(O)cc2O)n1-c1ccc(CN2CCC(C(=O)N3CCC(C(=O)OC4(CC)C(=O)OCc5c4cc4n(c5=O)Cc5c-4nc4ccc(O)cc4c5CC)CC3)CC2)cc1 (stereo not drawn) [SDC-TRAP-0076, 4,11-diethyl-9-hydroxy-3,14-dioxo-3,4,12,14-tetrahydro-1H-pyrano[3′,4′:6,7]indolizino[1,2-b]quinolin-4-yl 1-(1-(4-(3-(2,4-dihydroxy-5-isopropylphenyl)-5-(ethylcarbamoyl)-4H-1,2,4-triazol-4-0)benzyl)piperidine-4-carbonyl)piperidine-4-carboxylate] gave a Kp ([1]; 1 h) of 0.17, a Kp ([1]; 6 h) of 2.25 and a Kp ([1]; 24 h) of 20.4. The Kp ([1]; 48 h) was 6.85, the Kp ([1]; […]) was 0.01 and the “% Remaining” value ([2]; mouse plasma, 37° C.) was 96%.

With CCc1c2c(nc3ccc(OC(=O)N4CCN(c5ccc(-n6c(O)nnc6-c6cc(C(C)C)c(O)cc6O)cc5)CC4)cc13)-c1cc3c(c(=O)n1C2)COC(=O)C3(O)CC (stereo not drawn) [SDC-TRAP-0045, 4,11-diethyl-4-hydroxy-3,14-dioxo-3,4,12,14-tetrahydro-1H-pyrano[3′,4′:6,7]indolizino[1,2-b]quinolin-9-yl 4-(4-(3-(2,4-dihydroxy-5-isopropylphenyl)-5-hydroxy-4H-1,2,4-triazol-4-yl)phenyl)piperazine-1-carboxylate] the “Media (5 μM) % Remaining 1 h (37° C.) §” value [3] was 72%, the “Mouse (10 μM) % Remaining 1 h (37° C.) §” value ([2]; mouse plasma, 10 μM) was 34% and the “% Remaining” value ([2]; mouse plasma, 37° C.) was 45%.

In the case of CCc1c2c(nc3ccc(OC(=O)N4CCN(Cc5ccc(-n6c(O)nnc6-c6cc(C(C)C)c(O)cc6O)cc5)CC4)cc13)-c1cc3c(c(=O)n1C2)COC(=O)C3(O)CC (stereo not drawn) [SDC-TRAP-0046, 4,11-diethyl-4-hydroxy-3,14-dioxo-3,4,12,14-tetrahydro-1H-pyrano[3′,4′:6,7]indolizino[1,2-b]quinolin-9-yl 4-(4-(3-(2,4-dihydroxy-5-isopropylphenyl)-5-hydroxy-4H-1,2,4-triazol-4-yl)benzyl)piperazine-1-carboxylate], the “Media (5 μM) % Remaining 1 h (37° C.) §” value [3] is reported as 62%, the “Mouse (10 μM) % Remaining 1 h (37° C.) §” value ([2]; mouse plasma, 10 μM) is reported as 50% and the “% Remaining” value ([2]; mouse plasma, 37° C.) is reported as 52%.

In the case of CC(C)c1cc(-c2n[nH]c(=O)n2-c2ccc3c(ccn3C)c2)c(O)cc1O [ganetespib], the Concentration in tumor ([4]; 5 min) is reported as 2350 nM, the Concentration in plasma ([4]; 24 hr) is reported as “<LLOQ” and the “Persistence in tumor versus plasma and other tissues” value ([4]; up to 24 hr) is reported as “persist longer in tumor than in plasma or any other tissues studied”.

In the case of CCc1c2c(nc3ccc(OC(=O)N(C)CCOCCn4ccc5cc(-n6c(O)nnc6-c6cc(C(C)C)c(O)cc6O)ccc54)cc13)-c1cc3c(c(=O)n1C2)COC(=O)C3(O)CC (stereo not drawn) [SDC-TRAP-0029, 4,11-diethyl-4-hydroxy-3,14-dioxo-3,4,12,14-tetrahydro-1H-pyrano[3′,4′:6,7]indolizino[1,2-b]quinolin-9-yl (2-(2-(5-(3-(2,4-dihydroxy-5-isopropylphenyl)-5-hydroxy-4H-1,2,4-triazol-4-yl)-1H-indol-1-yl)ethoxy)ethyl)(methyl)carbamate], the “Media (5 μM) % Remaining 1 h (37° C.) §” value [3] is reported as 43%, the IC50 [5] is reported as 79 nM and the “Mouse (10 μM) % Remaining 1 h (37° C.) §” value ([2]; mouse plasma, 10 μM) is reported as 44%. For the same compound, the “% Remaining” value ([2]; mouse plasma, 37° C.) was 47%.

In the case of CC(C)c1cc(-c2nnc(O)n2-c2ccc3c(ccn3CCNC(=O)CCCCCNC(=O)CCCC[C@H]3SCC4NC(=O)NC43)c2)c(O)cc1O (stereo in doubt) [SDC-TRAP-0234, N-(2-(5-(3-(2,4-dihydroxy-5-isopropylphenyl)-5-hydroxy-4H-1,2,4-triazol-4-yl)-1H-indol-1-yl)ethyl)-6-(5-((3aR,4R,6aS)-2-oxohexahydro-1H-thieno[3,4-d]imidazol-4-yl)pentanamido)hexanamide], the Papp at 5 h [6] is reported as 0.0123 ×10⁻⁶ cm/s.

In the case of CCc1c2c(nc3ccc(OC(=O)N(C)C4CCN(C(=O)CCn5ccc6cc(-n7c(O)nnc7-c7cc(C(C)C)c(O)cc7O)ccc65)CC4)cc13)-c1cc3c(c(=O)n1C2)COC(=O)C3(O)CC (stereo not drawn) [SDC-TRAP-0184, 4,11-diethyl-4-hydroxy-3,14-dioxo-3,4,12,14-tetrahydro-1H-pyrano[3′,4′:6,7]indolizino[1,2-b]quinolin-9-yl (1-(3-(5-(3-(2,4-dihydroxy-5-isopropylphenyl)-5-hydroxy-4H-1,2,4-triazol-4-yl)-1H-indol-1-yl)propanoyl)piperidin-4-yl)(methyl)carbamate], the EC50 [7] is reported as 86.6 nM and the “% Remaining” value ([2]; mouse plasma, 37° C.) is reported as 18.0%.

For CCc1c2c(nc3ccc(OC(=O)N4CCC(CCn5ccc6cc(-n7c(O)nnc7-c7cc(C(C)C)c(O)cc7O)ccc65)CC4)cc13)-c1cc3c(c(=O)n1C2)COC(=O)[C@]3(O)CC [SDC-TRAP-0063, 4,11-diethyl-4-hydroxy-3,14-dioxo-3,4,12,14-tetrahydro-1H-pyrano[3′,4′:6,7]indolizino[1,2-b]quinolin-9-yl 4-(2-(5-(3-(2,4-dihydroxy-5-isopropylphenyl)-5-hydroxy-4H-1,2,4-triazol-4-yl)-1H-indol-1-yl)ethyl)piperidine-1-carboxylate], the “Selective targeting of tumor” value [1] was “selectively targets and accumulates in tumor cells”, the “Suppression of increase in tumor volume, higher versus lower dose” value ([8]; 150 mg/kg/1×wk compared to 100 mg/kg/1×wk) was “appears to prolong the suppression of increase in tumor volume compared to a lower dose” and the “Tumor growth suppression versus irinotecan alone or ganetespib plus irinotecan” value ([8]; 150 or 100 mg/kg/1×wk) was “greater tumor growth suppression than effector moiety irinotecan alone”. For the same compound, the EC50 [7] was 158 nM and the “% Remaining” value ([2]; mouse, plasma, 10 μM) was 11.1%.

From patent US10675360B2 (MADRIGAL PHARMACEUTICALS, INC., priority 2014, dated 2020)
